# Measured values: US20200000840A1, “USE OF CYCLODEXTRINS TO REDUCE ENDOCYTOSIS IN MALIGNANT AND NEURODEGENERATIVE DISORDERS” (priority 2016, published 2020)
# Several values for one entry are separate records, joined by “and”; a condition that tells them apart may be missing. Identical values can stand only once. Like-named read-outs stand apart in the source and are kept apart here. Marks after values point to notes of the source that are not given here.
# Assays:
# BBB = settings: cited from earlier work; for Transport across BBB: 2 h, 1 mM
# transferrin endocytosis = settings: 10 mM; cited from earlier work
# human keratinocytes = settings: cited from earlier work
# [1] = rats, rabbits, dogs, and humans; cited from earlier work
# Ab1-40/42 = settings: rats, stereotactical injection into the hippocampus; cited from earlier work
# rats [2] = settings: rat; cited from earlier work
# rats [3] = settings: […] daily; cited from earlier work
# rats [4] = settings: cited from earlier work
# human erythrocytes = settings: human erythrocytes; cited from earlier work
# [5] = in vivo; cited from earlier work
# MCF-7 cells = assay: Wound healing / gap closure migration assay (CytoSelect CBA-120); type: cell-based, human; settings: treated 2 hours
# Experimental: (§1) Published results have shown that β-CD inhibits human MDA-MB 231 cell migration (Guerra et al. 2016). This inhibition was attributed to the ability of β-CD to “deplete cholesterol”. β-CD, however, depletes also phospholipids. […] Cells were cultured in 24-well culture plates (Cytoselect CBA-120, 0.9 mm wound healing/gap closure migration assay) for 24 hours with wound healing insert in place. […] Protocol: Warm up the 24-well plate (CBA-120, Cell BioLabs Inc.) with 0.9 mm CytoSelect Wound Healing Inserts at room temperature for 10 minutes. Using sterile forceps, orient the desired number of inserts in the plate wells with their “wound field” aligned in the same direction. Create a cell suspension containing 0.5-1.0×10^6 cells/ml in media containing 10% fetal bovine serum (FBS). Add 500 μL of cell suspension to each well by carefully inserting the pipette tip through the open end at the top of the insert. For optimal cell dispersion, add 250 μL of cell suspension to either side of the open ends at the top of the insert. Incubate cells in a cell culture incubator for 12-24 hours. Carefully remove the insert from the well to begin the wound healing assay. Use sterile forceps to grab and lift the insert slowly from the plate well. Slowly aspirate and discard the media from the wells. Wash wells with media to remove dead cells and debris. Finally, add media to wells to keep cells hydrated. Repeat wash if wells still have debris or unattached cells. When washing is complete, add media with FBS and/or compounds to continue cell culture and wound healing process. Agents that inhibit or stimulate cell migration can be added directly to the wells. Incubate cells in a cell culture incubator (2 hours) and then wash cells with PBS and then add fresh media without compounds. Incubate 12-24 hours before wash and fixing. Remove the fixation solution and add 400 μL of Cell Stain Solution to each well. Allow the stain to incubate with the cells for 15 minutes at room temperature. Aspirate and discard the solution. Carefully wash each stained well 3× with deionized water. Discard washes and allow cells to dry at room temperature. Cells that migrated into the wounded area or protruded from the border of the wound were visualized and photographed under an inverted microscope. Determine the surface area of the defined wound area: Total Surface Area=0.9 mm x length. Determine the surface area of the migrated cells into the wound area: Migrated Cell Surface Area=length of cell migration (mm)×2 x length. Percent Closure (%)=Migrated Cell Surface Area/Total Surface Area x 100.
# MDA-MB-231 cells = assay: as above; type: cell-based, human; settings: treated 2 hours
# Experimental: as §1
# [6] = test system: MDA-MB 231 and MCF-7 human breast epithelial cell lines; assay: Wound healing assay, overall statements for both cell lines; type: cell-based
# Experimental: as §1
# [7] = Table 2; cited from earlier work
# [8] = test system: human epithelial colorectal adenocarcinoma (Caco-2) cells; settings: cited from earlier work
# [9] = biological target: BC resistance protein (BCRP/ABCG2) (Homo sapiens, UniProt Q9UNQ0); settings: cited from earlier work
# Chain of BC resistance protein (BCRP/ABCG2) (Q9UNQ0 whole entry): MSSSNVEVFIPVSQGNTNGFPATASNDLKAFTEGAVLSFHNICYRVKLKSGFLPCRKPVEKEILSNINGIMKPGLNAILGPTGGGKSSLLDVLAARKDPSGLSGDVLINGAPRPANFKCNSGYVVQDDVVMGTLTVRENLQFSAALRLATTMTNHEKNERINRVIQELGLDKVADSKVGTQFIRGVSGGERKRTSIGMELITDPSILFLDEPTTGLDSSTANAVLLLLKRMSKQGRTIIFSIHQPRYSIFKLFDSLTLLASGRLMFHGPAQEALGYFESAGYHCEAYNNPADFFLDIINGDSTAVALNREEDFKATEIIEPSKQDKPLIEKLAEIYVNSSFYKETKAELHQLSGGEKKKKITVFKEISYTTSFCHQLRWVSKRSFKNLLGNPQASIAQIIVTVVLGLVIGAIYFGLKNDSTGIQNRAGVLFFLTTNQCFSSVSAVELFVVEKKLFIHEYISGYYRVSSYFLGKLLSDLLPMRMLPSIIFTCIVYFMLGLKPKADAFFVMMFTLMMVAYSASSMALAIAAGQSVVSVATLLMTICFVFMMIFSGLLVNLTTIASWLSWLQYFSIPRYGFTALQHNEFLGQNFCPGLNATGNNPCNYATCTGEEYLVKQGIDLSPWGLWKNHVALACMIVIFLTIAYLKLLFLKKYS
# [10] = test system: H7 Lewis lung cancer cell lines; settings: three H7 Lewis lung cancer cell lines; cited from earlier work
# [11] = test system: BC and prostate cancer cell lines; settings: cancer cell lines vs normal counterparts; cited from earlier work
# [12] = test system: MDA-MB-241 and ZR751 BC cells; settings: cited from earlier work
# MCF7 BC cells = settings: cited from earlier work
# urothelial cancer cells = settings: cited from earlier work
# [13] = test system: RTK-[PIP2]-PI3K-[PIP3]-AKT signaling in HeLa cells; settings: cited from earlier work
# leukemia cell lines = settings: cited from earlier work
# mouse model of BC = settings: cited from earlier work
# [14] = test system: H7-O Lewis lung cancer cells; settings: mice implanted with H7-O Lewis lung cancer cells; cited from earlier work
# [15] = test system: primary effusion lymphoma (PEL); settings: mice; cited from earlier work
# α-synuclein = settings: mice, neuronal cell body and synapses; cited from earlier work
# MDA-MB-231 BC cells = settings: cited from earlier work
compound,measurement,setting,value
"OC[C@H]1O[C@@H]2O[C@H]3[C@H](O)[C@@H](O)[C@@H](O[C@H]4[C@H](O)[C@@H](O)[C@@H](O[C@H]5[C@H](O)[C@@H](O)[C@@H](O[C@H]6[C@H](O)[C@@H](O)[C@@H](O[C@H]7[C@H](O)[C@@H](O)[C@@H](O[C@H]8[C@H](O)[C@@H](O)[C@@H](O[C@H]1[C@H](O)[C@H]2O)O[C@@H]8CO)O[C@@H]7CO)O[C@@H]6CO)O[C@@H]5CO)O[C@@H]4CO)O[C@@H]3CO [β-cyclodextrin, beta-cyclodextrin]",Transport across BBB,BBB,9.3 (1 mM) %
same,BBB breakdown,BBB,2.5 mM
same,reduction of transferrin endocytosis,transferrin endocytosis,80%
same,apoptotic cell death,human keratinocytes,induces caspase-dependent apoptotic cell death
same,steady-state volume of distribution,[1],corresponds well with the extracellular fluid volume of each species
same,toxicity of Ab1-40/42,Ab1-40/42,Toxicity of Ab1-40/42 was reduced
same,LD50,rats [2],788 mg/kg
same,"deaths, daily doses s.c.",rats [3],no deaths
same,acute i.v. toxicity in rats,rats [4],1 g/kg
"OC[C@H]1O[C@@H]2O[C@H]3[C@H](O)[C@@H](O)[C@@H](O[C@H]4[C@H](O)[C@@H](O)[C@@H](O[C@H]5[C@H](O)[C@@H](O)[C@@H](O[C@H]6[C@H](O)[C@@H](O)[C@@H](O[C@H]7[C@H](O)[C@@H](O)[C@@H](O[C@H]8[C@H](O)[C@@H](O)[C@@H](O[C@H]9[C@H](O)[C@@H](O)[C@@H](O[C@H]1[C@H](O)[C@H]2O)O[C@@H]9CO)O[C@@H]8CO)O[C@@H]7CO)O[C@@H]6CO)O[C@@H]5CO)O[C@@H]4CO)O[C@@H]3CO [γ-CD, gamma-cyclodextrin]",hemolytic activity,human erythrocytes,β-CD>α-CD>γ-CD
alendronate-β-CD [ALN-β-CD],effect on bone,[5],bone-anabolic
hydroxypropyl-alpha-cyclodextrin [HPaCD],average wound closure,MCF-7 cells; 1 mM,41.33%
same,"wound closure (Percent Closure), replications r1-r3",MCF-7 cells; 1 mM,35.00% and 41.00% and 48.00%
same,average wound closure,MCF-7 cells; 2 mM,36.00%
same,"wound closure (Percent Closure), replications r1-r3",MCF-7 cells; 2 mM,40.00% and 30.00% and 38.00%
same,average wound closure,MCF-7 cells; 4 mM,28.67%
same,"wound closure (Percent Closure), replications r1-r3",MCF-7 cells; 4 mM,28.00% and 22.00% and 36.00%
same,average wound closure,MDA-MB-231 cells; 1 mM,53.00%
same,"wound closure (Percent Closure), replications r1-r3",MDA-MB-231 cells; 1 mM,47.00% and 53.00% and 59.00%
same,average wound closure,MDA-MB-231 cells; 2 mM,40.00%
same,"wound closure (Percent Closure), replications r1-r3",MDA-MB-231 cells; 2 mM,40.00% and 33.00% and 47.00%
same,average wound closure,MDA-MB-231 cells; 4 mM,31.67%
same,"wound closure (Percent Closure), replications r1-r3",MDA-MB-231 cells; 4 mM,38.00% and 32.00% and 25.00%
same,inhibition at 1 mM HPaCD compared with 2 mM HPbCD,[6],superior to inhibition at 2 mM HPbCD
same,migration versus concentration,[6]; 1-4 mM,migration decreased with higher concentration
same,"effect on migration, HPaCD compared with HPbCD",[6]; all cases,stronger effect on migration than HPbCD
same,Solubility in water,[7],~500^a g/l
same,Transport across BBB,BBB,26.7 (1 mM) %
same,BBB breakdown,BBB,2.5 mM
same,cytotoxicity,[8]; Caco-2 cells,less cytotoxic than α-cyclodextrin
maltosyl-α-cyclodextrin,cytotoxicity,[8],less cytotoxic than α-cyclodextrin
methyl-β-cyclodextrin [MβCD],decrease in activity of BCRP/ABCG2,[9],40%
same,invasion activity,[10],suppressed invasion activity
same,sensitivity to induced cell death,[11],more sensitive to MβCD-induced cell death than their normal counterparts
same,spheroid migration and invasion,[12],inhibited
same,endocytosis,MCF7 BC cells,inhibited
same,migration,MCF7 BC cells,inhibited
same,"toxicity, invasive vs non-invasive cells",urothelial cancer cells,more toxic for invasive than for non-invasive urothelial cancer cells
same,RTK-[PIP2]-PI3K-[PIP3]-AKT signaling,[13],interfered with RTK-[PIP2]-PI3K-[PIP3]-AKT signaling
same,growth of leukemia cell lines,leukemia cell lines,inhibited the growth
same,concentration in tumor,mouse model of BC,higher concentration in tumor than in other cells (except kidney and liver)
same,efficacy in mouse model of BC,mouse model of BC; in vivo,effective
same,number of lung metastases,[14],reduced the number of lung metastases
same,growth of primary effusion lymphoma,[15],inhibited growth
same,accumulation of α-synuclein,α-synuclein,reduced accumulation of α-synuclein
same,internalization of exosomes containing integrins,MDA-MB-231 BC cells,inhibited the internalization of exosomes
